This note sets out measurements from patent US10208021B2, “Substituted tetrahydroisoquinoline compounds as factor XIa inhibitors” (BRISTOL-MYERS SQUIBB COMPANY, priority 2011, dated 2019).

For orientation: Ki means a dissociation constant, usually derived from enzyme kinetics or from competition with a known ligand. The low end stands for higher affinity, the high end for lower affinity.

purified human Factor XIa, sequence (P03951 388-625): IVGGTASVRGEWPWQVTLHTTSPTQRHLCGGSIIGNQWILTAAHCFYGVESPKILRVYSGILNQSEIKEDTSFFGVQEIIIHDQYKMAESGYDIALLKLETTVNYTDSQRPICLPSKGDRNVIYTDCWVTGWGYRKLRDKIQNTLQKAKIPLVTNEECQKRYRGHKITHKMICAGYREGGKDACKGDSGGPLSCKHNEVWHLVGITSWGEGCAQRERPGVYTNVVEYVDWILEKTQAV
purified human Factor XIa, sequence (P03951 19-387 partner): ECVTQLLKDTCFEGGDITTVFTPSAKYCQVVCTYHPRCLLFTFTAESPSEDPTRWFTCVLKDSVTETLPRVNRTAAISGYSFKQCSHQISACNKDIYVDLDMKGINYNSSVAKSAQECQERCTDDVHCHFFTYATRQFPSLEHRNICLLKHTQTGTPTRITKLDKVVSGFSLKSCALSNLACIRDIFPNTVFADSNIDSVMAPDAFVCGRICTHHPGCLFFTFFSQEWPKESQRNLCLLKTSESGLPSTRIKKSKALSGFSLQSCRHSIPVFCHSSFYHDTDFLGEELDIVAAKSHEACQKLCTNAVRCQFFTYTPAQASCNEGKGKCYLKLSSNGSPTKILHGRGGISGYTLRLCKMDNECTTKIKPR

One test has as its target purified human Factor XIa (Homo sapiens (Human), UniProt P03951). Nature of the test: Factor XIa chromogenic substrate (S-2366) inhibition assay. As to conditions: substrate S-2366, Table 1. The class given is biochemical. Here is the method: The effectiveness of compounds of the present invention as inhibitors of the coagulation factors XIa, VIIa, IXa, Xa, XIIa, plasma kallikrein or thrombin, can be determined using a relevant purified serine protease, respectively, and an appropriate synthetic substrate. The rate of hydrolysis of the chromogenic or fluorogenic substrate by the relevant serine protease was measured both in the absence and presence of compounds of the present invention. […] A decrease in the rate of absorbance or fluorescence change in the presence of inhibitor is indicative of enzyme inhibition. Such methods are known to one skilled in the art. The results of this assay are expressed as the inhibitory constant, Ki. […] JT Baker or Fisher Scientific). […] Values of Ki were determined by allowing the protease to react with the substrate in the presence of the inhibitor. Reactions were allowed to go for periods of 20-180 minutes (depending on the protease) and the velocities (rate of absorbance or fluorescence change versus time) were measured.
Turning to `N#Cc1ccc(Cl)c(F)c1/C=C/C(=O)N1CCc2c(cccc2N2CCC(N3CCCC3)CC2)C1C(=O)Nc1ccc(C(=O)O)cc1` (racemic) [Example 155], the Ki was below 5 nM.
`COC(=O)c1ccc(NC(=O)C2c3cccc(N4CCC(N5CCCC5)CC4)c3CCN2C(=O)/C=C/c2c(C(C)=O)ccc(Cl)c2F)cc1` (racemic) [Example 175]: the Ki is below 5 nM.
Consider `CC(=O)c1ccc(Cl)c(F)c1/C=C/C(=O)N1CCc2c(cccc2N2CCS(=O)(=O)CC2)C1C(=O)Nc1ccc(C(=O)O)cc1` (racemic) [Example 215], for which the Ki is below 5 nM.
As for `O=C(O)c1ccc(NC(=O)C2c3cccc(N4CCC(N5CCNCC5)CC4)c3CCN2C(=O)/C=C/c2c(C(F)(F)F)ccc(Cl)c2F)cc1` (racemic) [Example 228], the Ki was below 5 nM.

The same test, now with this note: substrate S-2366, activity ranges, Table A.
As for `CC(=O)OC1CCN(c2cccc3c2CCN(C(=O)/C=C/c2c(-n4cnnn4)ccc(Cl)c2F)C3C(=O)Nc2ccc(C(=O)O)cc2)CC1` (racemic) [Example 137], the Ki was below 5 nM.
Still for that read-out and setting: then `O=C(O)c1ccc(NC(=O)C2c3cccc(N4CCC(N5CCOCC5)CC4)c3CCN2C(=O)/C=C/c2c(-n3cnnn3)ccc(Cl)c2F)cc1` (racemic) [Example 138], with below 5 nM; and `O=C(O)c1ccc(NC(=O)C2c3cccc(N4CCC(C(=O)N5CCOCC5)CC4)c3CCN2C(=O)/C=C/c2c(-n3cnnn3)ccc(Cl)c2F)cc1` (racemic) [Example 140], with below 5 nM.
As for `O=C(O)c1ccc(NC(=O)C2c3cccc(N4CCC5(CC4)OCCO5)c3CCN2C(=O)/C=C/c2c(-n3cnnn3)ccc(Cl)c2F)cc1` (racemic) [Example 142], the inhibition constant Ki is below 5 nM.
Still for that read-out and setting: then `O=C1CCC2(CCN(c3cccc4c3CCN(C(=O)/C=C/c3c(-n5cnnn5)ccc(Cl)c3F)C4C(=O)Nc3ccc(C(=O)O)cc3)CC2)O1` (racemic) [Example 145], with below 5 nM; and `O=C(O)c1ccc(NC(=O)C2c3cccc(N4CCC5(CCNCC5)CC4)c3CCN2C(=O)/C=C/c2c(-n3cnnn3)ccc(Cl)c2F)cc1` (racemic) [Example 146], with below 5 nM.
On the same count and under the same terms, the same measure for `N#CC1CCN(c2cccc3c2CCN(C(=O)/C=C/c2c(-n4cnnn4)ccc(Cl)c2F)C3C(=O)Nc2ccc(C(=O)O)cc2)CC1` (racemic) [Example 147]: below 5 nM; for `O=C(O)c1ccc(NC(=O)C2c3cccc(N4CCC(O)CC4)c3CCN2C(=O)/C=C/c2c(-n3cnnn3)ccc(Cl)c2F)cc1` (racemic) [Example 148]: below 5 nM; for `COC1CCN(c2cccc3c2CCN(C(=O)/C=C/c2c(-n4cnnn4)ccc(Cl)c2F)C3C(=O)Nc2ccc(C(=O)O)cc2)CC1` (racemic) [Example 150]: below 5 nM.
On the same count and under the same terms, the same measure for `CC1(C(=O)N2CCCC2)CCN(c2cccc3c2CCN(C(=O)/C=C/c2c(-n4cnnn4)ccc(Cl)c2F)C3C(=O)Nc2ccc(C(=O)O)cc2)CC1` (racemic) [Example 152]: below 5 nM; for `CC(=O)c1ccc(Cl)c(F)c1/C=C/C(=O)N1CCc2c(cccc2N2CCC(N3CCCC3)CC2)C1C(=O)Nc1ccc(C(=O)OC(C)(C)C)cc1` (racemic) [Example 153]: 5 to 10 nM; for `CC(=O)c1ccc(Cl)c(F)c1/C=C/C(=O)N1CCc2c(cccc2N2CCC(N3CCCC3)CC2)C1C(=O)Nc1ccc(C(=O)O)cc1` (racemic) [Example 154]: below 5 nM.
With `O=C(O)c1ccc(NC(=O)C2c3cccc(N4CCC(N5CCCC5)CC4)c3CCN2C(=O)/C=C/c2cccc(Cl)c2)cc1` (racemic) [Example 156], the Ki was 5 to 10 nM.
Turning to `O=C(O)c1ccc(NC(=O)C2c3cccc(N4CCC(N5CCCC5)CC4)c3CCN2C(=O)/C=C/c2cccc(Cl)c2Cl)cc1` (racemic) [Example 157], the Ki was in the range of 5 to 10 nM.
`O=C(O)c1ccc(NC(=O)C2c3cccc(N4CCC(N5CCCC5)CC4)c3CCN2C(=O)/C=C/c2cc(Cl)ccc2C(F)F)cc1` (racemic) [Example 158] gave a Ki below 5 nM.
Still for that read-out and setting: then `O=C(O)c1ccc(NC(=O)C2c3cccc(N4CCC(N5CCCC5)CC4)c3CCN2C(=O)/C=C/c2cc(Cl)ccc2OC(F)F)cc1` (racemic) [Example 159], with below 5 nM; and `CCOC(=O)c1ccc(NC(=O)C2c3cccc(N4CCC(N5CCCC5)CC4)c3CCN2C(=O)/C=C/c2c(C(C)=O)ccc(Cl)c2F)cc1` (racemic) [Example 160], with 5 to 10 nM; and `COc1ccc(Cl)c(F)c1/C=C/C(=O)N1CCc2c(cccc2N2CCC(N3CCCC3)CC2)C1C(=O)Nc1ccc(C(=O)O)cc1` (racemic) [Example 161], with below 5 nM.
Still for that read-out and setting: then `O=C(O)c1ccc(NC(=O)C2c3cccc(N4CCC(N5CCCC5)CC4)c3CCN2C(=O)/C=C/c2c(O)ccc(Cl)c2F)cc1` (racemic) [Example 162], with below 5 nM.
`CCOC(=O)c1ccc(NC(=O)C2c3cccc(N4CCC(N5CCCC5)CC4)c3CCN2C(=O)/C=C/c2c(C#N)ccc(Cl)c2F)cc1` (racemic) [Example 165]: the Ki lay in the range of 5 to 10 nM.
For `O=C(O)c1ccc(NC(=O)C2c3cccc(N4CCC(N5CCCC5)CC4)c3CCN2C(=O)/C=C/c2c(C(F)(F)F)ccc(Cl)c2F)cc1` (racemic) [Example 176], the Ki is below 5 nM.
Still for that read-out and setting: then `O=C(O)c1ccc(NC(=O)C2c3cccc(N4CCC(N5CCCC5)CC4)c3CCN2C(=O)/C=C/c2c(F)ccc(Cl)c2F)cc1` (racemic) [Example 180], with below 5 nM.
On the same count and under the same terms, then `O=C(O)c1ccc(NC(=O)C2c3cccc(N4CCC(N5CCCC5)CC4)c3CCN2C(=O)/C=C/c2ccccc2F)cc1` (racemic) [Example 181], with 5 to 10 nM.
The same measure, in the same setting: then `O=C(O)c1ccc(NC(=O)C2c3cccc(N4CCC(N5CCCC5)CC4)c3CCN2C(=O)/C=C/c2c(F)ccc(F)c2F)cc1` (racemic) [Example 182], with 5 to 10 nM.
Turning to `CC(=O)c1ccc(Cl)c(F)c1/C=C/C(=O)N1CCc2c(cccc2N2CCC(C(=O)N(C)C)CC2)C1C(=O)Nc1ccc(C(=O)O)cc1` (racemic) [Example 218], the Ki was below 5 nM.
On to `CC(=O)c1ccc(Cl)c(F)c1/C=C/C(=O)N1CCc2c(cccc2N2CCC(N3CCOCC3)CC2)C1C(=O)Nc1ccc(C(=O)O)cc1` (racemic) [Example 220], for which the inhibition constant (Ki) is below 5 nM.
Same read-out and setting: the same measure for `CN(C)C1CCN(c2cccc3c2CCN(C(=O)/C=C/c2c(C(F)(F)F)ccc(Cl)c2F)C3C(=O)Nc2ccc(C(=O)O)cc2)CC1` (racemic) [Example 223]: below 5 nM; for `CN(C)C1CCN(c2cccc3c2CCN(C(=O)/C=C/c2c(F)cccc2C(F)(F)F)C3C(=O)Nc2ccc(C(=O)O)cc2)CC1` (racemic) [Example 224]: 5 to 10 nM.
Consider `O=C(O)c1ccc(NC(=O)C2c3cccc(N4CCS(=O)(=O)CC4)c3CCN2C(=O)/C=C/c2c(C(F)(F)F)ccc(Cl)c2F)cc1` (racemic) [Example 225], for which the inhibitory constant (Ki) was below 5 nM.
The same measure, in the same setting: then `CCOC(=O)c1ccc(NC(=O)C2c3cccc(N4CCS(=O)(=O)CC4)c3CCN2C(=O)/C=C/c2c(-n3cnnn3)ccc(Cl)c2F)cc1` (racemic) [Example 226], with 5 to 10 nM; and `O=C(O)c1ccc(NC(=O)C2c3cccc(N4CCC5(CCNC5)CC4)c3CCN2C(=O)/C=C/c2c(C(F)(F)F)ccc(Cl)c2F)cc1` (racemic) [Example 227], with below 5 nM.
The same measure, in the same setting: then `COCCCNC(=O)C1c2cccc(N3CCC(N4CCCC4)CC3)c2CCN1C(=O)/C=C/c1c(-n2cnnn2)ccc(Cl)c1F` (racemic) [Example 229], with 100 to 500 nM.
